Assay results: patent US5162221A (Forschungszentrum Juelich GmbH, priority 1989, dated 1992)

Assays:
[1] = target: fructose-1,6-bisphosphate aldolase (F-1,6-BP aldolase) from Staphylococcus carnosus, class I, purified (Staphylococcus carnosus, UniProt Q07159); conditions: read-out: Km for F-1-P; cleavage of F-1-P to DHAP and glyceraldehyde; 37° C., pH 7.5
Method: Purified aldolase (40 μg/ml) was used for characterizing the enzyme, and 120 μg/ml were used for molecular weight determination.

[2] = test system: O=C(COP(=O)(O)O)[C@@H](O)[C@H](O)[C@H](O)COP(=O)(O)O; test: purified protein, by the assay type; conditions: other: cleavage of F-1,6-BP to DHAP and glyceraldehyde 3-phosphate, 37° C., pH 7.5

fructose-1,6-bisphosphate aldolase (F-1,6-BP aldolase) from Staphylococcus carnosus, class I, purified, sequence (Q07159 whole entry): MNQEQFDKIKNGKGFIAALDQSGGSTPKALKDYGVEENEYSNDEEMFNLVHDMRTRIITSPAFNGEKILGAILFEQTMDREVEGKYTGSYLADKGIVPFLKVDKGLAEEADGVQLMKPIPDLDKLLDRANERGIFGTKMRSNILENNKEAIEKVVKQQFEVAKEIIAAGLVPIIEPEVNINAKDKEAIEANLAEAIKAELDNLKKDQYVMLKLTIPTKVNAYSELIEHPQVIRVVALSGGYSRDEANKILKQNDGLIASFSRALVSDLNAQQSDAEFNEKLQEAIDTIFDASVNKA

## O=C(COP(=O)(O)O)[C@@H](O)[C@H](O)[C@H](O)CO [F-1-P]
[1]
  Km: 18.8 mM

## fructose-1,6-bisphosphate aldolase (F-1,6-BP aldolase) from Staphylococcus carnosus, class I, purified (Staphylococcus carnosus subsp. carnosus TM300)
[2]
  Km: 0.022 mM
